The molecules below were run against T1, Glucocorticoid receptor (Homo sapiens, UniProt P04150) (assay: Binding affinity to glucocorticoid receptor by GR binding assay).
T1 sequence (P04150 whole entry): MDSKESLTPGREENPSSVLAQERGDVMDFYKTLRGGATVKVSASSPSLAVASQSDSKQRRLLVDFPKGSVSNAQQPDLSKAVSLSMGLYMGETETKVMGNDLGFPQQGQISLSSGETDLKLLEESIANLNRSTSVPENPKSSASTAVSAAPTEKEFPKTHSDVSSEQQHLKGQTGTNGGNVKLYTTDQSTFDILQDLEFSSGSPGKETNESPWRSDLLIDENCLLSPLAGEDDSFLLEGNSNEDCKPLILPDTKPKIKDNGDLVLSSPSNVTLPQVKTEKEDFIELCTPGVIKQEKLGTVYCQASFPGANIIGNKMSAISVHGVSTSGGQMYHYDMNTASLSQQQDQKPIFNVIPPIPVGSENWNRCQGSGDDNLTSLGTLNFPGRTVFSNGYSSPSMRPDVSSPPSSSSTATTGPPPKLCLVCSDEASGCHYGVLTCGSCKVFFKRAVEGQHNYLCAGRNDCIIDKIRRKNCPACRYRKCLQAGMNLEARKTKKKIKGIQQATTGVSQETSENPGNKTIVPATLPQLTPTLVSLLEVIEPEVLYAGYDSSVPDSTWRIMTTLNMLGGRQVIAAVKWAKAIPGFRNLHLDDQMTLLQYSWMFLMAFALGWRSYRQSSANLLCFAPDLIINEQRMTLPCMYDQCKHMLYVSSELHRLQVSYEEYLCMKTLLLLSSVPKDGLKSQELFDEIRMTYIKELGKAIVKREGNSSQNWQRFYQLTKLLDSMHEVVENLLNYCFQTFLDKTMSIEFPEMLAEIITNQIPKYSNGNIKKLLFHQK

SMILES	IC50
COc1cc(C[C@@H](C)[C@H](C)Cc2ccc(O)c(OC)c2)ccc1O [(-)-DIHYDROGUAIARETICACID]	35 µM
COc1cc([C@@H]2[C@@H](C)[C@H](C)[C@H]2c2ccc(OC(C)=O)c(OC)c2)ccc1OC(C)=O [DI-O-ACETYLENDIANDRIN A]	34 µM
COc1ccc([C@@H]2[C@@H](C)[C@H](C)[C@H]2c2ccc(OC)c(OC)c2)cc1OC [DI-O-METHYLENDIANDRIN A]	13 µM
COc1cc([C@@H]2[C@@H](C)[C@H](C)[C@H]2c2ccc(O)c(OC)c2)ccc1O [ENDIANDRIN A]	0.9 µM
COc1cc([C@H]2O[C@@H](c3ccc(O)c(OC)c3)[C@H](C)[C@@H]2C)ccc1O [NECTANDRIN B]	27 µM
